Assay results as given in ChEMBL document CHEMBL1201861, “Genomics of Drug Sensitity in Cancer screening data, Wellcome Trust Sanger Institute”.

Columns and labels:
Assay in all cases: cells
Assay type in all cases: functional, cell-based
Conditions in all cases: Homo sapiens
[1] = test system: GT3TKB;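 also: growth inhibition of the cell line, read out with a cell viability assay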
Description: SANGER: Inhibition of human GT3TKB cell growth in a cell viability assay.

[2] = test system: no-11;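 also: growth inhibition of human NO-11 cells, read out with a cell viability assay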
Description: SANGER: Inhibition of human no-11 cell growth in a cell viability assay.

[3] = test system: SF-268;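 also: growth inhibition of SF-268 cells determined with a cell viability assay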
Description: SANGER: Inhibition of human SF268 cell growth in a cell viability assay.

[4] = test system: ES4;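 also: growth inhibition of human ES4 cells, read out by a cell viability assay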
Description: SANGER: Inhibition of human ES4 cell growth in a cell viability assay.

[5] = test system: D-263MG
Description: SANGER: Inhibition of human D-263MG cell growth in a cell viability assay.

[6] = test system: LB373-MEL-D;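 also: growth inhibition of the cell line, read out in a cell viability assay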
Description: SANGER: Inhibition of human LB373-MEL-D cell growth in a cell viability assay.

[7] = test system: RXF 393;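 also: growth inhibition of human RXF 393 cells, read out with a cell viability assay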
Description: SANGER: Inhibition of human RXF393 cell growth in a cell viability assay.

[8] = test system: ES7;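 also: growth inhibition of cultured human ES7 cells, read out as cell viability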
Description: SANGER: Inhibition of human ES7 cell growth in a cell viability assay.

[9] = test system: NCI-H2170;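 also: cell viability assay measuring growth inhibition of human NCI-H2170 cancer cells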
Description: SANGER: Inhibition of human NCI-H2170 cell growth in a cell viability assay.

[10] = test system: K562
Description: SANGER: Inhibition of human K-562 cell growth in a cell viability assay.

[11] = test system: OVCAR-5;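 also: growth inhibition of human OVCAR-5 cells, read out with a cell viability assay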
Description: SANGER: Inhibition of human OVCAR-5 cell growth in a cell viability assay.

[12] = test system: EW-11;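 also: growth inhibition of human EW-11 cells, measured with a cell viability assay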
Description: SANGER: Inhibition of human EW-11 cell growth in a cell viability assay.

[13] = test system: GI-ME-N;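 also: growth inhibition of human GI-ME-N cells, read out with a cell viability assay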
Description: SANGER: Inhibition of human GI-ME-N cell growth in a cell viability assay.

[14] = test system: IST-MEL1;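 also: growth inhibition of the cell line, read out with a cell viability assay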
Description: SANGER: Inhibition of human IST-MEL1 cell growth in a cell viability assay.

[15] = test system: A2780;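 also: growth inhibition of A2780 cells, read out with a cell viability assay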
Description: SANGER: Inhibition of human A2780 cell growth in a cell viability assay.

[16] = test system: UACC-257
Description: SANGER: Inhibition of human UACC-257 cell growth in a cell viability assay.

[17] = test system: EM-2;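 also: growth inhibition of EM-2 cells, read out with a cell viability assay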
Description: SANGER: Inhibition of human EM-2 cell growth in a cell viability assay.

[18] = test system: GOTO;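 also: growth inhibition of GOTO cells, read out by a cell viability assay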
Description: SANGER: Inhibition of human GOTO cell growth in a cell viability assay.

[19] = test system: NCI-H446;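 also: growth inhibition of NCI-H446 cells determined by a cell viability assay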
Description: SANGER: Inhibition of human NCI-H446 cell growth in a cell viability assay.

[20] = test system: LB2241-RCC;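 also: cell viability assay measuring how strongly the cultured human renal carcinoma line is prevented from growing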
Description: SANGER: Inhibition of human LB2241-RCC cell growth in a cell viability assay.

[21] = test system: SJSA-1;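 also: growth inhibition of human SJSA-1 cells, read out through a cell viability measurement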
Description: SANGER: Inhibition of human SJSA-1 cell growth in a cell viability assay.

[22] = test system: SF-539;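 also: Read-out is a cell viability assay, with IC50 reflecting inhibition of cell growth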
Description: SANGER: Inhibition of human SF539 cell growth in a cell viability assay.

[23] = test system: RMG-I;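 also: growth inhibition of human RMG-I cells, read out with a cell viability assay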
Description: SANGER: Inhibition of human RMG-I cell growth in a cell viability assay.

[24] = test system: SH-4;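 also: growth inhibition of SH-4 cells, read out with a cell viability assay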
Description: SANGER: Inhibition of human SH-4 cell growth in a cell viability assay.

[25] = test system: MN-60;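 also: growth inhibition of the MN-60 cell line, determined with a cell viability assay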
Description: SANGER: Inhibition of human MN-60 cell growth in a cell viability assay.

[26] = test system: NCI-H1299;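 also: growth inhibition of human NCI-H1299 cells, read out by a cell viability assay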
Description: SANGER: Inhibition of human NCI-H1299 cell growth in a cell viability assay.

[27] = test system: SK-MEL-2;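 also: growth inhibition of human SK-MEL-2 cells measured with a cell viability assay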
Description: SANGER: Inhibition of human SK-MEL-2 cell growth in a cell viability assay.

[28] = test system: EW-18;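 also: growth inhibition of EW-18 cells, read out by a cell viability assay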
Description: SANGER: Inhibition of human EW-18 cell growth in a cell viability assay.

[29] = test system: NB10;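 also: growth inhibition of NB10 cells, read out by a cell viability assay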
Description: SANGER: Inhibition of human NB10 cell growth in a cell viability assay.

[30] = test system: KM-H2;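 also: growth inhibition of KM-H2 cells, read out by a cell viability assay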
Description: SANGER: Inhibition of human KM-H2 cell growth in a cell viability assay.

[31] = test system: PSN1;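 also: suppression of growth of human PSN1 cells, read out by a cell viability assay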
Description: SANGER: Inhibition of human PSN1 cell growth in a cell viability assay.

[32] = test system: SNU-5;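 also: cell viability readout used to measure growth inhibition in human NCI-SNU-5 cells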
Description: SANGER: Inhibition of human NCI-SNU-5 cell growth in a cell viability assay.

[33] = test system: AM-38;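 also: growth inhibition of AM-38 cells of human origin, read out by a cell viability assay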
Description: SANGER: Inhibition of human AM-38 cell growth in a cell viability assay.

[34] = test system: CP66-MEL;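 also: growth inhibition of CP66-MEL cells determined in a cell viability assay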
Description: SANGER: Inhibition of human CP66-MEL cell growth in a cell viability assay.

[35] = test system: P12-Ichikawa
[36] = test system: VA-ES-BJ;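 also: growth inhibition of the VA-ES-BJ cell line, read out by a cell viability assay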
Description: SANGER: Inhibition of human VA-ES-BJ cell growth in a cell viability assay.

[37] = test system: HT
Description: SANGER: Inhibition of human HT cell growth in a cell viability assay.

[38] = test system: LS-123
Description: SANGER: Inhibition of human LS-123 cell growth in a cell viability assay.

[39] = test system: KYSE-410;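 also: growth inhibition of KYSE-410 cells, measured through a cell viability readout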
Description: SANGER: Inhibition of human KYSE-410 cell growth in a cell viability assay.

[40] = test system: COLO-800;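 also: growth inhibition of COLO-800 cells, read out with a cell viability assay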
Description: SANGER: Inhibition of human COLO-800 cell growth in a cell viability assay.

[41] = test system: TE-10;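 also: growth inhibition of TE-10 cells, measured by a cell viability assay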
Description: SANGER: Inhibition of human TE-10 cell growth in a cell viability assay.

[42] = test system: BE-13;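 also: growth inhibition of human BE-13 cells, measured with a cell viability assay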
Description: SANGER: Inhibition of human BE-13 cell growth in a cell viability assay.

[43] = test system: SK-OV-3;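 also: growth inhibition of SK-OV-3 human cells, read out with a cell viability assay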
Description: SANGER: Inhibition of human SK-OV-3 cell growth in a cell viability assay.

[44] = test system: NB5;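 also: growth inhibition of NB5 cells, read out as cell viability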
Description: SANGER: Inhibition of human NB5 cell growth in a cell viability assay.

[45] = test system: NKM-1;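 also: growth inhibition of NKM-1 cells, read out with a cell viability assay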
Description: SANGER: Inhibition of human NKM-1 cell growth in a cell viability assay.

[46] = test system: A2058;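 also: reduction of A2058 cell growth, read out with a viability assay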
Description: SANGER: Inhibition of human A2058 cell growth in a cell viability assay.

[47] = test system: ML-2;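 also: growth inhibition of ML-2 cells, measured with a cell viability readout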
Description: SANGER: Inhibition of human ML-2 cell growth in a cell viability assay.

[48] = test system: KNS-42;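 also: growth inhibition of KNS-42 cells, read out with a cell viability assay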
Description: SANGER: Inhibition of human KNS-42 cell growth in a cell viability assay.

[49] = test system: COLO-320-HSR;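 also: growth inhibition of COLO-320-HSR cells, determined with a cell viability assay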
Description: SANGER: Inhibition of human COLO-320-HSR cell growth in a cell viability assay.

[50] = test system: Becker;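 also: growth inhibition of Becker cells, read out with a cell viability assay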
Description: SANGER: Inhibition of human Becker cell growth in a cell viability assay.

[51] = test system: IST-MES1;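 also: growth inhibition of IST-MES1 cells, measured with a cell viability assay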
Description: SANGER: Inhibition of human IST-MES1 cell growth in a cell viability assay.

[52] = test system: KNS-81-FD;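 also: growth inhibition of KNS-81-FD cells, read out with a cell viability assay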
Description: SANGER: Inhibition of human KNS-81-FD cell growth in a cell viability assay.

[53] = test system: BT-474
Description: SANGER: Inhibition of human BT-474 cell growth in a cell viability assay.

[54] = test system: A101D;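 also: growth inhibition of the cell line, measured with a viability assay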
Description: SANGER: Inhibition of human A101D cell growth in a cell viability assay.

[55] = test system: L-363
Description: SANGER: Inhibition of human L-363 cell growth in a cell viability assay.

[56] = test system: DU-4475
Description: SANGER: Inhibition of human DU-4475 cell growth in a cell viability assay.

[57] = test system: ALL-PO;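 also: growth inhibition of ALL-PO cells, read out by a cell viability assay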
Description: SANGER: Inhibition of human ALL-PO cell growth in a cell viability assay.

[58] = test system: COR-L23;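 also: cell viability assay measuring how strongly compounds suppress growth of COR-L23 cells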
Description: SANGER: Inhibition of human COR-L23 cell growth in a cell viability assay.

[59] = test system: NTERA-2-cl-D1
Description: SANGER: Inhibition of human NTERA-S-cl-D1 cell growth in a cell viability assay.

[60] = test system: MEG-01
Description: SANGER: Inhibition of human MEG-01 cell growth in a cell viability assay.

[61] = test system: HL-60
Description: SANGER: Inhibition of human HL-60 cell growth in a cell viability assay.

[62] = test system: NCI-H1650
Description: SANGER: Inhibition of human NCI-H1650 cell growth in a cell viability assay.

[63] = test system: KE-37
Description: SANGER: Inhibition of human KE-37 cell growth in a cell viability assay.

[64] = test system: MMAC-SF
Description: SANGER: Inhibition of human MMAC-SF cell growth in a cell viability assay.

In the case of `C[C@]12O[C@H](C[C@]1(O)CO)n1c3ccccc3c3c4c(c5c6ccccc6n2c5c31)CNC4=O` [LESTAURTINIB], the IC50 [1] is reported as 389 nM, the IC50 [2] is reported as over 2000 nM and the IC50 [3] is reported as 326 nM. For the same compound, the IC50 [4] was 128 nM, the IC50 [5] was 971 nM and the IC50 [6] was over 2000 nM. It also gave an IC50 [7] of 917 nM, an IC50 [8] of 94.8 nM and an IC50 [9] of over 2000 nM. For the same compound, the IC50 [10] was over 2000 nM, the IC50 [11] was 504 nM and the IC50 [12] was 132 nM. It also gave an IC50 [13] of 174 nM, an IC50 [14] of 196 nM and an IC50 [15] of 94 nM. It also gave an IC50 [16] of 532 nM, an IC50 [17] of 450 nM and an IC50 [18] of 940 nM. It also gave an IC50 [19] of 1910 nM, an IC50 [20] of 125 nM and an IC50 [21] of 216 nM. It also gave an IC50 [22] of 175 nM, an IC50 [23] of over 2000 nM and an IC50 [24] of 110 nM. For the same compound, the IC50 [25] was 372 nM, the IC50 [26] was 925 nM and the IC50 [27] was 26.6 nM. It also gave an IC50 [28] of 635 nM, an IC50 [29] of 338 nM and an IC50 [30] of over 2000 nM. For the same compound, the IC50 [31] was 231 nM, the IC50 [32] was over 2000 nM and the IC50 [33] was over 2000 nM. The IC50 [34] was over 2000 nM, the IC50 [35] was 26.2 nM and the IC50 [36] was 389 nM. For the same compound, the IC50 [37] was 1130 nM, the IC50 [38] was over 2000 nM and the IC50 [39] was 1410 nM. The IC50 [40] was 190 nM, the IC50 [41] was 1480 nM and the IC50 [42] was 280 nM. It also gave an IC50 [43] of 224 nM, an IC50 [44] of 471 nM and an IC50 [45] of 47.3 nM. The IC50 [46] was 245 nM, the IC50 [47] was 195 nM and the IC50 [48] was over 2000 nM. The IC50 [49] was over 2000 nM, the IC50 [50] was 724 nM and the IC50 [51] was over 2000 nM. The IC50 [52] was 1480 nM, the IC50 [53] was over 2000 nM and the IC50 [54] was 67 nM. It also gave an IC50 [55] of 147 nM, an IC50 [56] of 97.8 nM and an IC50 [57] of 172 nM. The IC50 [58] was 665 nM, the IC50 [59] was 363 nM and the IC50 [60] was 456 nM. The IC50 [61] was 149 nM, the IC50 [62] was over 2000 nM and the IC50 [63] was 16.8 nM. It also gave an IC50 [64] of 72.1 nM.
`C[C@]1(c2nc3c(C(N)=O)cccc3[nH]2)CCCN1` [VELIPARIB] showed an IC50 [1] of over 5000 nM, an IC50 [2] of over 5000 nM and an IC50 [3] of over 5000 nM. The IC50 [4] was over 5000 nM, the IC50 [5] was over 5000 nM and the IC50 [6] was over 5000 nM. For the same compound, the IC50 [7] was over 5000 nM, the IC50 [8] was over 5000 nM and the IC50 [9] was over 5000 nM. For the same compound, the IC50 [10] was over 5000 nM, the IC50 [11] was over 5000 nM and the IC50 [12] was over 5000 nM. The IC50 [13] was over 5000 nM, the IC50 [14] was over 5000 nM and the IC50 [15] was over 5000 nM. It also gave an IC50 [16] of over 5000 nM, an IC50 [17] of over 5000 nM and an IC50 [18] of over 5000 nM. The IC50 [19] was over 5000 nM, the IC50 [20] was over 5000 nM and the IC50 [21] was over 5000 nM. For the same compound, the IC50 [22] was over 5000 nM, the IC50 [23] was over 5000 nM and the IC50 [24] was over 5000 nM. The IC50 [25] was over 5000 nM, the IC50 [26] was over 5000 nM and the IC50 [27] was over 5000 nM. The IC50 [28] was over 5000 nM, the IC50 [29] was over 5000 nM and the IC50 [30] was over 5000 nM. It also gave an IC50 [31] of over 5000 nM, an IC50 [32] of 3130 nM and an IC50 [33] of over 5000 nM. The IC50 [34] was over 5000 nM, the IC50 [35] was over 5000 nM and the IC50 [36] was over 5000 nM. It also gave an IC50 [37] of over 5000 nM, an IC50 [38] of over 5000 nM and an IC50 [39] of over 5000 nM. The IC50 [40] was over 5000 nM, the IC50 [41] was over 5000 nM and the IC50 [42] was over 5000 nM. It also gave an IC50 [43] of over 5000 nM, an IC50 [44] of over 5000 nM and an IC50 [45] of over 5000 nM. The IC50 [46] was over 5000 nM, the IC50 [47] was over 5000 nM and the IC50 [48] was over 5000 nM. For the same compound, the IC50 [49] was over 5000 nM, the IC50 [50] was over 5000 nM and the IC50 [51] was over 5000 nM. The IC50 [52] was over 5000 nM, the IC50 [53] was over 5000 nM and the IC50 [54] was over 5000 nM. It also gave an IC50 [55] of over 5000 nM, an IC50 [56] of over 5000 nM and an IC50 [57] of over 5000 nM. It also gave an IC50 [58] of over 5000 nM, an IC50 [59] of over 5000 nM and an IC50 [60] of over 5000 nM. The IC50 [61] was over 5000 nM, the IC50 [62] was over 5000 nM and the IC50 [63] was over 5000 nM. It also gave an IC50 [64] of over 5000 nM.
